Reference: US20240174649A1, “CULLIN-RING E3 UBIQUITIN LIGASE 4 INHIBITOR COMPOUNDS AND METHODS OF THEIR USE” (ICAHN SCHOOL OF MEDICINE AT MOUNT SINAI, priority 2021, published 2024)
Read-outs that look alike come from different tables or passages of the source. Each block holds one molecule with its values, some of them ahead of it.

Columns and labels:
ROC1-CUL1 CTD [1] = molecular target: T1, ROC1-CUL1 CTD (Homo sapiens (Human), UniProt Q13616); assay: Ligand binding by MST
Protocol: (§1) E3 ligase complex (˜2 nmol) was labeled with fluorescent dye using Monolith NT Protein Labeling Kit Red-NHS (Nanotemper) in the presence of 20 mM MES pH 6.0 and 150 mM NaCl. Excess dye was removed using the included gravity flow column and eluted in storage buffer containing 20 mM Tris-HCl, pH 7.4, 150 mM NaCl, and 10% glycerol. The fluorescent E3 complex (˜0.01-0.06 μM) was mixed with increasing amount of compound in a buffer (20 μl) that contains phosphate-buffered saline, 0.1% TWEEN-20 and 2% prionex. Following incubation at room temperature for 30 min, the reaction mixture loaded into premium coated capillaries and analyzed in the Monolith NT.115 machine (Nanotemper). Thermophoresis was recorded for each sample and binding curve was generated and Kd was calculated using the included software. For reactions where significant ligand specific fluorescence quenching occurred (verified by manufacturer's SDS Denaturation-test protocol), the initial fluorescence quenching data was used directly to calculate the binding curve and Kd.

ROC1-CUL1 CTD [2] = molecular target: T1, ROC1-CUL1 CTD; assay: FRET K48 di-Ub synthesis assay; type: biochemical; details: for E3 inhibition: up to 80 μM
Protocol: The high throughput screen (“HTS”) employed the FRET K48 di-Ub assay as established previously (Wu et al., “Suramin Inhibits Cullin-RING E3 Ubiquitin Ligases,” PNAS 113(14):E2011-2018 (2016), which is hereby incorporated by reference in its entirety) and was carried out at Memorial Sloan Kettering Cancer Center Core Screening Facility. For HTS, the assay was formatted using three reagent addition steps. Library compounds, stored in 10 mM stock plates (DMSO), were transferred into assay plates and each well contains a single compound at 100 μM in 1 μl 10% DMSO. The complete complement of proteins/enzymes (6.5 μl), containing Ub E1 (14 nM), E2 Cdc34 (124 nM), E3 ROC1-CUL1 CTD (0.2 μM), Ub C31-I555 (donor, 0.93 μM), and Ub C64-I647 (receptor, 1.62 μM), in the presence of 33 mM Tris-HCl (pH 7.4), 1.7 mM MgCl2, 0.33 mM DTT, and BSA (0.07 mg/ml), was added to each plate. The concentrations of all five proteins have been determined based on Km measurement as described previously (Wu et al., “Suramin Inhibits Cullin-RING E3 Ubiquitin Ligases,” PNAS 113(14):E2011-2018 (2016), which is hereby incorporated by reference in its entirety). To initiate ubiquitination, ATP (2.5 μl in 2.64 mM) was added and its final concentration was 0.66 mM. The concentration of ATP was set high to minimize identification of nucleotide analogues because the priority of the HTS is to find small molecule modulators specific for E3 ROC1-CUL1 CTD. In this setting, the concentration of compound and DMSO in a given well were 10 μM and 1%, respectively. After incubation at room temperature for 45 min, EDTA (30 mM) was added to terminate the reaction. The reaction was quantified based on the ratio of acceptor:donor fluorescence (excitation 515 nm; donor emission 570 nm; acceptor emission 670 nm) using a Victor high-throughput plate reader (Perkin Elmer).
(§2) The reaction mixture (15 μl) was assembled onto a 384-well microtiter plate. […] ATP (0.66 mM) was then added to the mix followed by a brief centrifugation to settle down the mixture. The resulting plate was incubated at 30° C. in the Synergy-H1 reader and the fluorescence signal was monitored. Ubiquitination was quantified based on the ratio of acceptor:donor fluorescence (excitation 515 nm; donor emission 570 nm, acceptor emission 670 nm).

E3 (CUL1) = E3 (CUL1) (Homo sapiens (Human), UniProt Q13616); assay: E3 (CUL1) inhibition (Table 1); type: biochemical
Protocol: as §2

E3 (CUL4) = E3 (CUL4) (Homo sapiens (Human), UniProt Q13619); assay: E3 (CUL4) inhibition (Table 1); type: biochemical
Protocol: (§3) The reaction was incubated for 5 min at 37° C. […] The reaction was incubated for 5 min at room temperature. In the second step (chase), the completed Cdc34b-Ub thiol ester reaction mixture was combined with one third of the completed mono-ubiquitination mixture. The final volume was adjusted to 10 μl with a mix that contained 50 mM Tris-HCl (pH 7.4), 0.5 mM DTT, 0.1 mg/ml of BSA, 5 mM MgCl2, and 2 mM ATP. Compounds were added where indicated. The chase reaction was incubated for 10 min at 37° C. The reaction products were separated by 4-20% SDS-polyacrylamide gel electrophoresis. The reaction scheme was identical to the one described above for FIGS. 12A-B. […] The reaction products, separated by SDS-PAGE, were visualized and analyzed by phospho-imaging using Typhoon 9500 scanner.

ROC1-CUL4A = ROC1-CUL4A (Homo sapiens (Human), UniProt Q13619); assay: 32P-Ub chain elongation by ROC1-CUL4A; type: biochemical; design: concentration or dose not given beside the values; details: relative to KH-4-43
Protocol: as §3

cancer cells = assay: Apoptosis, Annexin V flow cytometry; type: cell-based; details: for induction of apoptosis: at 30 μM
Protocol: Cells (5×10^4) were seeded 24 hours before compound treatment. Compound was added to the culture media and cells were cultured with the compound for 48 hours. The treated cells were then transferred into 5 ml flow cytometry tubes and the well was washed once with PBS to collect any remaining cells. The cells were then pelleted at 500×g for 5 min with a Beckman CS-6KR centrifuge at 4° C. After removal of supernatant, the cells pellet was washed with Annexin V binding buffer (10 mM Hepes-NaOH, pH 7.4, 150 mM NaCl, 5 mM KCl, 1 mM MgCl2, and 1.8 mM CaCl2). Cells were pelleted once again and incubated in the dark with Annexin V-FITC (2 μg/ml) in binding buffer for 5 min then analyzed using LSRFortessa flow cytometer (BD).

ROC1-CUL4A (full length) = ROC1-CUL4A (full length) (Homo sapiens (Human), UniProt Q13619); assay: Ligand binding by MST; details: for Kd: read-out: E3 binding ROC1-CUL4A Kd
Protocol: as §1

MV4-11 tumors = assay: AML MV4-11 subcutaneous xenograft; details: G5, 3 mg/kg, QD, PO
[3] = Table 9, read-out: E3 Binding Kd (MST with CUL1 CTD)
[4] = Table 9, read-out: IC50 (FRET CUL1 assay)
[5] = Table 5, MST, read-out: E3 binding Kd
[6] = Table 5, read-out: E3 inhibition IC50

T1 sequence (Q13616 411-776): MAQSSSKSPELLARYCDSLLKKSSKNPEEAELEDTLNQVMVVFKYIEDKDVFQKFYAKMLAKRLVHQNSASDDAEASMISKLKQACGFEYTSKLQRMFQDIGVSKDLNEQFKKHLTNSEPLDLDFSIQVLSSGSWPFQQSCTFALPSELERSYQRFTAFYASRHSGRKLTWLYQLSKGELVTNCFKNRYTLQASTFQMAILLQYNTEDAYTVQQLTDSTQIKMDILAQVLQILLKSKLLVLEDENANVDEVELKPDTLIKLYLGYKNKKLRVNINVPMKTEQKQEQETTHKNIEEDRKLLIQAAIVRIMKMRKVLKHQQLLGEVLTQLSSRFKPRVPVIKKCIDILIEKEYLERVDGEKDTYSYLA
T1 sequence (P62877 whole entry partner): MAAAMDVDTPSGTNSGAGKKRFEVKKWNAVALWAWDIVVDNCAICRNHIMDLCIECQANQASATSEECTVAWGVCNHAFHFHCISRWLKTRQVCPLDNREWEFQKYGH
Sequence of ROC1-CUL4A (full length) (Q13619 39-759): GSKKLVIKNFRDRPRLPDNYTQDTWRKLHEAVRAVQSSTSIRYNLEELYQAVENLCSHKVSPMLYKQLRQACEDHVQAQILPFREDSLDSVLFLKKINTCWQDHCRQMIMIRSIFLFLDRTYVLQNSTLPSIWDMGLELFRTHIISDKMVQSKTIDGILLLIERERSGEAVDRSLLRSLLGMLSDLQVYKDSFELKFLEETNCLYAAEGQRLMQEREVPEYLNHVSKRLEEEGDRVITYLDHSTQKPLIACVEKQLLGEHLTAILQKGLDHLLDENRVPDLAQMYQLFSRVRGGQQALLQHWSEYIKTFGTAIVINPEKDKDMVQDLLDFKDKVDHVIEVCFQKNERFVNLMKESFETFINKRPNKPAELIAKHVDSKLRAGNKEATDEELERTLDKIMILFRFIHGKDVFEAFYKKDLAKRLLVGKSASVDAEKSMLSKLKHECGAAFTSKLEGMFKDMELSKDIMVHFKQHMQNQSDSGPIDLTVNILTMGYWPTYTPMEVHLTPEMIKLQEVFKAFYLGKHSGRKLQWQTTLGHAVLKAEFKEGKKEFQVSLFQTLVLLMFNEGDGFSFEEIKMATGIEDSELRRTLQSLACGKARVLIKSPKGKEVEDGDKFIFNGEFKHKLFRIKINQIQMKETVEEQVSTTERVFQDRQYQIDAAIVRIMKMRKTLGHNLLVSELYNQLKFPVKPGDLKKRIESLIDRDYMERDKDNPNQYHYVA
Sequence of ROC1-CUL4A (full length) (P62877 15-108 partner): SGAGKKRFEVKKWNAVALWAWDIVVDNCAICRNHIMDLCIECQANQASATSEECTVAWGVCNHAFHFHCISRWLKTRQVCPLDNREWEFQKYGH
Sequence of ROC1-CUL4A (Q13619 39-759): as the sequence (Q13619 39-759) above
Sequence of ROC1-CUL4A (P62877 15-108 partner): as the sequence (P62877 15-108 partner) above
Sequence of E3 (CUL4) (Q13619 whole entry): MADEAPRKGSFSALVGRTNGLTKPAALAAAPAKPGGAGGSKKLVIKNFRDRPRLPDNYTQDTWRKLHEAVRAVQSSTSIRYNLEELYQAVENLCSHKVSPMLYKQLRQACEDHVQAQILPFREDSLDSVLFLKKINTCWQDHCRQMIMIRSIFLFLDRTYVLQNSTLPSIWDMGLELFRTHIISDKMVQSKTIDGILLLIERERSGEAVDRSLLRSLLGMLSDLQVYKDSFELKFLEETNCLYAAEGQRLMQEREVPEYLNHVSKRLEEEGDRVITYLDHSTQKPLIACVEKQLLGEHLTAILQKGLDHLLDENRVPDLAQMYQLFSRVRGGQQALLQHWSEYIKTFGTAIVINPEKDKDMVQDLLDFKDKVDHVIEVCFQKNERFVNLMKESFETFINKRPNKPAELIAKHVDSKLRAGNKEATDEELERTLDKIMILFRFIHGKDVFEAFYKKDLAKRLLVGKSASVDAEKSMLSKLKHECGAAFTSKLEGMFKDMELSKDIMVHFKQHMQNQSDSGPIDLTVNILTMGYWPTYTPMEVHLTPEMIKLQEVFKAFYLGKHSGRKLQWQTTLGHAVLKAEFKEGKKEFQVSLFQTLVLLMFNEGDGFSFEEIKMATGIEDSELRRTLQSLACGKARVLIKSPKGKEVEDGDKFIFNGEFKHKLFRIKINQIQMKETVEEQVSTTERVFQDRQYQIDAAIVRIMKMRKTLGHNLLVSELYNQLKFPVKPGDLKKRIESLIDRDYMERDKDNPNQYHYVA
Sequence of E3 (CUL4) (P62877 whole entry partner): as the sequence (P62877 whole entry partner) above
Sequence of E3 (CUL1) (Q13616 whole entry): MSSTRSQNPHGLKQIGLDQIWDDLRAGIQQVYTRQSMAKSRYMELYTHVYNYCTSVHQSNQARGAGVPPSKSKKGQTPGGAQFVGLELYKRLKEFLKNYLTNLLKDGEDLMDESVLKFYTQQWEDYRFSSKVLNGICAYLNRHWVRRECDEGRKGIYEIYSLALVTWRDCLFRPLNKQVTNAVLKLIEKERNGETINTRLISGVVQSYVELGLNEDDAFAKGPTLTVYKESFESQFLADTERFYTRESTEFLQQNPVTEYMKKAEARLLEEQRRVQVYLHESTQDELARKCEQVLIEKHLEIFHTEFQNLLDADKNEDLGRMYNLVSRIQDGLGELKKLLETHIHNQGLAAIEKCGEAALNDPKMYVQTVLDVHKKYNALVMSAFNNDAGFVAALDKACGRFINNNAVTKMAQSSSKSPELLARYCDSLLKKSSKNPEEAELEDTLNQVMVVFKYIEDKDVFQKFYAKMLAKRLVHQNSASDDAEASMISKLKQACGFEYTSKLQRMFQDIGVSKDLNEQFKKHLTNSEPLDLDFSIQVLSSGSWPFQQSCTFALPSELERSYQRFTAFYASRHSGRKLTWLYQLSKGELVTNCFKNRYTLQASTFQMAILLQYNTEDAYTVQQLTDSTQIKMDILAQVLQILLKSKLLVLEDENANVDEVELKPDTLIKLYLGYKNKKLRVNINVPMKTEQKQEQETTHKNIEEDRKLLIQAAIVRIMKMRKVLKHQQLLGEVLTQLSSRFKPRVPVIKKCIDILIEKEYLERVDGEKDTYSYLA
Sequence of E3 (CUL1) (P62877 whole entry partner): as the sequence (P62877 whole entry partner) above

Structure (SMILES): O=c1c(Oc2ccc(Br)cc2)c(C(F)(F)F)oc2c(O)c(O)ccc12
Kd (ROC1-CUL1 CTD [1]; [3]): 1.42 ± 0.26 µM
IC50 (ROC1-CUL1 CTD [2]; [4]): 3.5 µM

Structure (SMILES): O=c1c(Oc2ccc(Br)cc2)c(C(F)(F)F)oc2c(O)c(O)c(Br)cc12
Kd (ROC1-CUL1 CTD [1]; [3]): 1.19 ± 0.36 µM
IC50 (ROC1-CUL1 CTD [2]; [4]): 8.3 µM

Structure (SMILES): COc1ccc2c(=O)c(Oc3ccccc3)c(C)oc2c1OC [#33-3, 7,8-dimethoxy-2-methyl-3-phenoxy-4H-chromen-4-one]
Kd (ROC1-CUL1 CTD [1]; [5]): > 500 µM
E3 inhibition IC50 (ROC1-CUL1 CTD [2]; Table 5): No inhibition
E3 inhibition (ROC1-CUL1 CTD [2]): No inhibition

Structure (SMILES): COc1ccc2c(=O)c(-c3cnn(-c4ccc(F)cc4)c3)c(C(F)(F)F)oc2c1OC [KH-3-141]
E3 (CUL1) Inhibition EC50 (E3 (CUL1)): Inactive
E3 (CUL4) Inhibition EC50 (E3 (CUL4)): Inactive
E3 CRL4 Relative Inhibition (ROC1-CUL4A): 0%
Apoptosis EC50 (cancer cells; Table 1): Inactive
Apoptosis EC50 (cancer cells; Table 6): Inactive
induction of apoptosis (cancer cells): unable to induce any detectable level of apoptosis
E3 binding ROC1-CUL4A Kd (ROC1-CUL4A (full length)): No detectable binding

Structure (SMILES): COc1c(O)ccc2c(=O)c(-c3cnn(-c4ccccc4)c3)c(C(F)(F)F)oc12 [KH-4-119]
E3 (CUL4) Inhibition EC50 (E3 (CUL4)): Inactive
E3 CRL4 Relative Inhibition (ROC1-CUL4A): 13%
Apoptosis EC50 (cancer cells; Table 1): Inactive
Apoptosis EC50 (cancer cells; Table 6): Inactive
induction of apoptosis (cancer cells): unable to induce any detectable level of apoptosis
E3 binding ROC1-CUL4A Kd (ROC1-CUL4A (full length)): no detectable binding activity

Structure (SMILES): CCCn1cc(-c2c(C(F)(F)F)oc3c(O)c(O)ccc3c2=O)cn1 [MM-008]
E3 CRL4 Relative Inhibition (ROC1-CUL4A): 0%
EC50 (cancer cells; Table 6): 38 µM
Kd (ROC1-CUL4A (full length)): 26.4 µM

Structure (SMILES): CCn1cc(-c2c(C(F)(F)F)oc3c(O)c(O)ccc3c2=O)cn1 [MM-009]
E3 CRL4 Relative Inhibition (ROC1-CUL4A): 0%
EC50 (cancer cells; Table 6): 66 µM
Kd (ROC1-CUL4A (full length)): > 400 µM

Structure (SMILES): CNC(=O)c1cc(Oc2ccc(NC(=O)Nc3ccc(Cl)c(C(F)(F)F)c3)cc2)ccn1 [Sorafenib, reference compound]
tumor inhibition value (MV4-11 tumors): 46.02%

Structure (SMILES): O=c1c(Oc2ccccc2)c(C(F)(F)F)oc2c(O)c(O)c(Br)cc12 [[drawing 256]]
IC50 (ROC1-CUL1 CTD [2]; [4]): 3.3 µM

Structure (SMILES): O=c1c(Oc2ccccc2)c(C(F)(F)F)oc2c(O)c(O)c(Br)cc12 [drawing 256]
Kd (ROC1-CUL1 CTD [1]; [3]): 1.89 ± 0.96 µM
IC50 (ROC1-CUL1 CTD [2]; [4]): 3.1 µM

Second part, the molecule after the results:

Kd (ROC1-CUL1 CTD [1]; [3]): 1.9 ± 0.28 µM
IC50 (ROC1-CUL1 CTD [2]; [4]): 2.4 µM
Structure (SMILES): O=c1c(Oc2cccc(Br)c2)c(C(F)(F)F)oc2c(O)c(O)ccc12

Kd (ROC1-CUL1 CTD [1]; [3]): 1.95 ± 0.44 µM
IC50 (ROC1-CUL1 CTD [2]; [4]): 2.7 µM
Structure (SMILES): O=c1c(Oc2ccccc2Br)c(C(F)(F)F)oc2c(O)c(O)ccc12

reduction of binding Kd relative to #33 (ROC1-CUL1 CTD [1]): 8 fold
Kd (ROC1-CUL1 CTD [1]; [5]): 15 µM
drop in IC50 relative to #33 (ROC1-CUL1 CTD [2]): 7 fold
IC50 (ROC1-CUL1 CTD [2]; [6]): 8.9 µM
Structure (SMILES): Cc1oc2c(O)c(O)ccc2c(=O)c1Oc1ccccc1 [#33-2, 7,8-dihydroxy-2-methyl-3-phenoxy-4H-chromen-4-one]

Kd (ROC1-CUL1 CTD [1]; [5]): 48 µM
E3 inhibition IC50 (ROC1-CUL1 CTD [2]; Table 5): No inhibition
E3 inhibition (ROC1-CUL1 CTD [2]): No inhibition
Structure (SMILES): O=c1c(Oc2ccccc2)c(C(F)(F)F)oc2c3c(ccc12)OCCO3 [#33-5, 8-phenoxy-9-(trifluoromethyl)-2,3-dihydro-7H-[1,4]dioxino[2,3-h]chromen-7-one]

reduction of binding Kd relative to #33 (ROC1-CUL1 CTD [1]): > 30 fold
Kd (ROC1-CUL1 CTD [1]; [5]): 57 µM
E3 inhibition IC50 (ROC1-CUL1 CTD [2]; Table 5): No inhibition
E3 inhibition (ROC1-CUL1 CTD [2]): No inhibition
Structure (SMILES): O=c1c(Oc2ccccc2)c(C(F)(F)F)oc2cc(O)ccc12 [#33-7, 7-hydroxy-3-phenoxy-2-(trifluoromethyl)-4H-chromen-4-one]

Kd (ROC1-CUL1 CTD [1]; [5]): 19 µM
IC50 (ROC1-CUL1 CTD [2]; [6]): 80 µM
Structure (SMILES): O=c1c(Oc2ccccc2)c(C(F)(F)F)oc2c3c(ccc12)OCO3 [Compound 33-4, 7-phenoxy-8-(trifluoromethyl)-6H-[1,3]dioxolo[4,5-h]chromen-6-one]

E3 CRL4 Relative Inhibition (ROC1-CUL4A): 2%
EC50 (cancer cells; Table 6): 28 µM
Kd (ROC1-CUL4A (full length)): 38 µM
Structure (SMILES): CCCCn1cc(-c2c(C(F)(F)F)oc3c(O)c(O)ccc3c2=O)cn1 [MM-007]
